Measured values taken from patent publication US20260262643A1, “HERBICIDAL BENZOXAZINES” (FMC CORPORATION, priority 2022, published 2026).

Key:
pigweed, palmer [1] = assay: Test C preemergence; assay type: in vivo, Amaranthus palmeri; details: preemergence, 0 to 100 scale (0 no effect, 100 complete control)
How it was run: (§1)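 Seeds in loam–sand blend received preemergence directed soil spray of test chemicals in non-phytotoxic solvent with surfactant; postemergence treatment was applied at one- to two-leaf stage (2–10 cm). After 10 days in greenhouse, injury rated visually versus untreated controls, 0 (no effect) to 100 (complete control).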

ragweed [2] = assay: Test C postemergence; assay type: in vivo, Ambrosia artemisiifolia; details: 125 g ai/ha, postemergence, 10 days; 0 to 100 scale, 0 no effect, 100 complete control
How it was run: as §1

barnyardgrass [3] = assay: Test C preemergence; assay type: in vivo, Echinochloa crusgalli; details: 0 to 100 scale (0 no effect, 100 complete control)
How it was run: as §1

sedge, umbrella = assay: Test D flooded paddy test; assay type: in vivo, Cyperus difformis; details: 250 g ai/ha, applied to paddy water, visual rating after 13 to 14 days, scale 0 to 100 (0 no effect, 100 complete control)
How it was run: (§2)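 2-leaf plants; flood 3 cm above soil; compound dosed into paddy water; greenhouse 13–14 d; visual rating vs controls, 0–100 (100 = complete control); dash = not tested.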

rice = assay: Test D flooded paddy test; assay type: in vivo, Oryza sativa; details: 250 g ai/ha, applied to paddy water, visual rating after 13 to 14 days, scale 0 to 100 (0 no effect, 100 complete control)
How it was run: as §2

ducksalad = assay: Test D flooded paddy test; assay type: in vivo, Heteranthera limosa; details: 250 g ai/ha, applied to paddy water, visual rating after 13 to 14 days, scale 0 to 100 (0 no effect, 100 complete control)
How it was run: as §2

wheat [4] = assay: Test C preemergence; assay type: in vivo, Triticum aestivum; details: preemergence, 0 to 100 scale (0 no effect, 100 complete control)
How it was run: as §1

horseweed = assay: Test C postemergence; assay type: in vivo, Erigeron canadensis; details: 10 days
How it was run: as §1

soybean [5] = assay: Test C postemergence; assay type: in vivo, Glycine max; details: 125 g ai/ha, postemergence, 10 days; 0 to 100 scale, 0 no effect, 100 complete control
How it was run: as §1

soybean [6] = assay: Test C preemergence; assay type: in vivo, Glycine max; details: preemergence, 0 to 100 scale (0 no effect, 100 complete control)
How it was run: as §1

green foxtail [7] = assay: Test C preemergence; assay type: in vivo, Setaria viridis; details: preemergence, 0 to 100 scale (0 no effect, 100 complete control)
How it was run: as §1

corn [8] = assay: Test C postemergence; assay type: in vivo, Zea mays; details: 10 days
How it was run: as §1

corn [9] = assay: Test C preemergence; assay type: in vivo, Zea mays; details: preemergence, 0 to 100 scale (0 no effect, 100 complete control)
How it was run: as §1

oat, wild [10] = assay: Test C preemergence; assay type: in vivo, Avena fatua; details: preemergence, 0 to 100 scale (0 no effect, 100 complete control)
How it was run: as §1

pigweed, palmer [11] = assay: Test C postemergence; assay type: in vivo, Amaranthus palmeri; details: 125 g ai/ha, postemergence, 10 days; 0 to 100 scale, 0 no effect, 100 complete control
How it was run: as §1

kochia [12] = assay: Test C preemergence; assay type: in vivo, Bassia scoparia; details: preemergence, 0 to 100 scale (0 no effect, 100 complete control)
How it was run: as §1

kochia [13] = assay: Test C postemergence; assay type: in vivo, Bassia scoparia; details: 125 g ai/ha, postemergence, 10 days; 0 to 100 scale, 0 no effect, 100 complete control
How it was run: as §1

blackgrass [14] = assay: Test C preemergence; assay type: in vivo, Alopecurus myosuroides; details: 0 to 100 scale (0 no effect, 100 complete control)
How it was run: as §1

green foxtail [15] = assay: Test C postemergence; assay type: in vivo, Setaria viridis; details: 10 days
How it was run: as §1

barnyardgrass [16] = assay: Test C postemergence; assay type: in vivo, Echinochloa crusgalli; details: 10 days
How it was run: as §1

ragweed [17] = assay: Test C preemergence; assay type: in vivo, Ambrosia artemisiifolia; details: preemergence, 0 to 100 scale (0 no effect, 100 complete control)
How it was run: as §1

oat, wild [18] = assay: Test C postemergence; assay type: in vivo, Avena fatua; details: 125 g ai/ha, postemergence, 10 days; 0 to 100 scale, 0 no effect, 100 complete control
How it was run: as §1

wheat [19] = assay: Test C postemergence; assay type: in vivo, Triticum aestivum; details: 125 g ai/ha, postemergence, 10 days; 0 to 100 scale, 0 no effect, 100 complete control
How it was run: as §1

blackgrass [20] = assay: Test C postemergence; assay type: in vivo, Alopecurus myosuroides; details: 10 days
How it was run: as §1

ryegrass, Italian [21] = assay: Test C postemergence; assay type: in vivo, Lolium multiflorum; details: 125 g ai/ha, postemergence, 10 days; 0 to 100 scale, 0 no effect, 100 complete control
How it was run: as §1

ryegrass, Italian [22] = assay: Test C preemergence; assay type: in vivo, Lolium multiflorum; details: preemergence, 0 to 100 scale (0 no effect, 100 complete control)
How it was run: as §1

barnyardgrass [23] = assay: Test D flooded paddy test; assay type: in vivo, Echinochloa crus-galli; details: 250 g ai/ha, applied to paddy water, visual rating after 13 to 14 days, scale 0 to 100 (0 no effect, 100 complete control)
How it was run: as §2

galium = assay: Test C postemergence; assay type: in vivo, Galium aparine; details: 10 days
How it was run: as §1

[24] = Preemergence, 500 g ai/ha, visual rating after 10 days
[25] = Test C, preemergence, 125 g ai/ha
[26] = 125 g ai/ha, postemergence, 0 to 100 scale, 0 no effect, 100 complete control
[27] = Postemergence, 500 g ai/ha, visual 0 to 100 scale (0 no effect, 100 complete control)

COc1ccc(-n2cncn2)cc1C(=O)N1C[C@H](C)Oc2c(F)cccc21 [Compound 270]
Pigweed, Palmer plant response rating (pigweed, palmer [1]; 500 g ai/ha): 100
Pigweed, Palmer plant response rating (pigweed, palmer [1]; Test C, 125 g ai/ha): 90
Plant response rating, Ragweed (ragweed [2]): 30
Plant response rating, Barnyardgrass (barnyardgrass [3]; [24]): 100
Barnyardgrass plant response rating (barnyardgrass [3]; [25]): 70
Plant response rating, Sedge, Umbrella (Flood) (sedge, umbrella): 95
Plant response rating, Rice (Flood) (rice): 10
Plant response rating, Ducksalad (Flood) (ducksalad): 100
Wheat plant response rating (wheat [4]; 500 g ai/ha): 90
Wheat plant response rating (wheat [4]; Test C, 125 g ai/ha): 40
Plant response rating, Horseweed (horseweed; [26]): 20
Plant response rating, Horseweed (horseweed; [27]): 60
Plant response rating, Soybean (soybean [5]): 100
Soybean plant response rating (soybean [6]; 500 g ai/ha): 100
Soybean plant response rating (soybean [6]; Test C, 125 g ai/ha): 90
Foxtail, Green plant response rating (green foxtail [7]; 500 g ai/ha): 100
Foxtail, Green plant response rating (green foxtail [7]; Test C, 125 g ai/ha): 100
Plant response rating, Corn (corn [8]; [26]): 40
Plant response rating, Corn (corn [8]; [27]): 90
Corn plant response rating (corn [9]; 500 g ai/ha): 40
Corn plant response rating (corn [9]; Test C, 125 g ai/ha): 0
Oat, Wild plant response rating (oat, wild [10]; 500 g ai/ha): 90
Oat, Wild plant response rating (oat, wild [10]; Test C, 125 g ai/ha): 40
Plant response rating, Pigweed, Palmer (pigweed, palmer [11]): 40
Kochia plant response rating (kochia [12]; 500 g ai/ha): 90
Kochia plant response rating (kochia [12]; Test C, 125 g ai/ha): 60
Plant response rating, Kochia (kochia [13]): 30
Plant response rating, Blackgrass (blackgrass [14]; [24]): 90
Blackgrass plant response rating (blackgrass [14]; [25]): 80
Plant response rating, Foxtail, Green (green foxtail [15]; [26]): 80
Plant response rating, Foxtail, Green (green foxtail [15]; [27]): 90
Plant response rating, Barnyardgrass (barnyardgrass [16]; [26]): 90
Plant response rating, Barnyardgrass (barnyardgrass [16]; [27]): 100
Ragweed plant response rating (ragweed [17]; 500 g ai/ha): 60
Ragweed plant response rating (ragweed [17]; Test C, 125 g ai/ha): 10
Plant response rating, Oat, Wild (oat, wild [18]): 90
Plant response rating, Wheat (wheat [19]): 80
Plant response rating, Blackgrass (blackgrass [20]; [26]): 80
Plant response rating, Blackgrass (blackgrass [20]; [27]): 90
Plant response rating, Ryegrass, Italian (ryegrass, Italian [21]): 80
Ryegrass, Italian plant response rating (ryegrass, Italian [22]; 500 g ai/ha): 100
Ryegrass, Italian plant response rating (ryegrass, Italian [22]; Test C, 125 g ai/ha): 90
Plant response rating, Barnyardgrass (Flood) (barnyardgrass [23]): 15
Plant response rating, Galium (galium; [26]): 100
Plant response rating, Galium (galium; [27]): 100
